Test results taken from patent publication US10253039B2, “Inhibitors of bacterial DNA gyrase with efficacy against gram-negative bacteria” (priority 2014, dated 2019).
Like-named read-outs stand apart in the source and are kept apart here.

Legend:
Type in all cases: cell-based
[1] = tested on: E. coli BW25113; assay: MIC, microdilution in 96-well plates; conditions: Escherichia coli, read-out: MIC
Description: (§1) A microdilution method in 96-well plates was used and the MIC protocol established by the Clinical Laboratory Standards Institute was followed. From a growing subculture, a 1:10000 inoculum of each strain in Luria-Bertani media was prepared and aliquoted 100 μL in 4 columns of wells, except for the top row wells, which contained 200 μL of inoculum. A solution of gyramide C2 was aliquoted into 3 of the wells containing 200 μL and DMSO was added to the 4th well. The liquid in each of wells was mixed with a multi-channel pipet and 100 μL was transferred to the next well and mixed. The 2-fold dilution was continued down the 96-well plate until 100 μL was left, which was discarded. The plates were incubated at 37° C. with shaking for 16-18 hours. The MIC was determined as the lowest concentration that inhibited growth and had no turbidity by visual inspection.
(§2) Minimum inhibitory concentrations of various gyramide compounds against 20 strains of bacteria were determined using the procedure described above.

[2] = tested on: Edwardsiella tarda; assay: MIC, microdilution in 96-well plates
Description: as §1, §2

[3] = tested on: Streptococcus pyogenes; assay: MIC, 20-strain panel
Description: as §1, §2

[4] = tested on: E. coli MG1655; assay: MIC, 20-strain panel; conditions: Escherichia coli, read-out: MIC
Description: as §1, §2

[5] = tested on: Salmonella enterica subsp. enterica typhimurium; assay: MIC, 20-strain panel
Description: as §1, §2

[6] = tested on: Klebsiella pneumoniae subsp. pneumoniae; assay: MIC, 20-strain panel
Description: as §1, §2

[7] = tested on: Staphylococcus saprophyticus subsp. saprophyticus; assay: MIC, 20-strain panel
Description: as §1, §2

[8] = tested on: Staphylococcus aureus subsp. aureus; assay: MIC, 20-strain panel; conditions: read-out: MIC
Description: as §1, §2

[9] = tested on: E. coli JW5503 (deltolC); assay: MIC, 20-strain panel; conditions: Escherichia coli
Description: as §1, §2

[10] = tested on: Staphylococcus epidermidis; assay: MIC, 20-strain panel
Description: as §1, §2

[11] = tested on: Streptococcus agalactiae; assay: MIC, 20-strain panel
Description: as §1, §2

[12] = tested on: Shigella flexneri; assay: MIC, 20-strain panel
Description: as §1, §2

[13] = Salmonella enterica subsp. enterica Typhimurium
[14] = Klebsiella pneumoniae subsp. pneumoniae
[15] = Staphylococcus aureus subsp. aureus
[16] = F: Salmonella enterica subsp. enterica Typhimurium
[17] = E: Klebsiella pneumoniae subsp. pneumoniae
[18] = H: Staphylococcus aureus subsp. aureus

Measured: MIC

CC(C)Oc1ccc(CN2CC[C@@H](NS(=O)(=O)c3cc(C(F)(F)F)cc(C(F)(F)F)c3)C2)cc1 [Compound 135]
8 µg/mL: [9]; E. coli JW5503 (deltolC)
> 8 µg/mL: [1]; BW25113, E. coli BW25113 | [2] | [3] | [4]; MG1655, E. coli MG1655 | [5]; [13] | [6]; [14] | [7] | [8]; [15] | [10] | [11] | [12]

N#Cc1cccc(S(=O)(=O)N[C@@H]2CCN(Cc3ccc(-c4nccs4)cc3)C2)c1 [Compound 12]
> 8 µg/mL: [1]; BW25113, B: E. coli BW25113 | [2]; D: Edwardsiella tarda | [3] | [4]; MG1655, A: E. coli MG1655 | [5]; [16] | [6]; [17] | [7] | [8]; [18] | [10] | [11] | [12]; G: Shigella flexneri
2 µg/mL: [9]; C: E. coli JW5503 (deltolC)

O=S(=O)(N[C@@H]1CCN(Cc2ccc(OC(F)F)cc2)C1)c1cccc(C(F)(F)F)c1 [Compound 87]
> 8 µg/mL: [1]; BW25113, B: E. coli BW25113 | [2]; D: Edwardsiella tarda | [3] | [4]; MG1655, A: E. coli MG1655 | [5]; [16] | [6]; [17] | [7] | [8]; [18] | [10] | [11] | [12]; G: Shigella flexneri
2 µg/mL: [9]; C: E. coli JW5503 (deltolC)

N#Cc1cccc(S(=O)(=O)N[C@@H]2CCN(Cc3ccc(-c4ccccn4)cc3)C2)c1 [Compound 46]
1 µg/mL: [9]; C: E. coli JW5503 (deltolC)
8 µg/mL: [5]; [16]
> 8 µg/mL: [1]; BW25113, B: E. coli BW25113 | [2]; D: Edwardsiella tarda | [3] | [4]; MG1655, A: E. coli MG1655 | [6]; [17] | [7] | [8]; [18] | [10] | [11] | [12]; G: Shigella flexneri

O=S(=O)(N[C@@H]1CCN(Cc2ccc(OC3CC3)cc2)C1)c1cncc(F)c1 [Compound 154]
> 8 µg/mL: [1]; BW25113, E. coli BW25113 | [2] | [3] | [4]; MG1655, E. coli MG1655 | [5]; [13] | [6]; [14] | [7] | [8]; [15] | [9]; E. coli JW5503 (deltolC) | [10] | [11] | [12]

Cc1ccc(S(C)(=O)=O)cc1S(=O)(=O)N[C@@H]1CCN(Cc2ccc(-c3ccccc3)cc2)C1 [Compound 73]
4 µg/mL: [9]; C: E. coli JW5503 (deltolC)
> 8 µg/mL: [1]; BW25113, B: E. coli BW25113 | [2]; D: Edwardsiella tarda | [3] | [4]; MG1655, A: E. coli MG1655 | [5]; [16] | [6]; [17] | [7] | [8]; [18] | [10] | [11] | [12]; G: Shigella flexneri

Cc1ccc(S(=O)(=O)N[C@@H]2CCN(Cc3ccc(-c4ccccc4)cc3)C2)cn1 [Compound 174]
> 8 µg/mL: [1]; BW25113, E. coli BW25113 | [2] | [3] | [4]; MG1655, E. coli MG1655 | [5]; [13] | [6]; [14] | [7] | [8]; [15] | [9]; E. coli JW5503 (deltolC) | [10] | [11] | [12]

CC(C)Oc1c(Cl)cc(CN2CC[C@@H](NS(=O)(=O)c3cccc(C#N)c3)C2)cc1Cl [Compound 116]
> 8 µg/mL: [1]; BW25113, B: E. coli BW25113 | [2]; D: Edwardsiella tarda | [3] | [4]; MG1655, A: E. coli MG1655 | [5]; [16] | [6]; [17] | [7] | [8]; [18] | [9]; C: E. coli JW5503 (deltolC) | [10] | [11] | [12]; G: Shigella flexneri

CN1C(=O)Cc2cc(S(=O)(=O)N[C@@H]3CCN(Cc4ccc(OC5CC5)cc4)C3)ccc21 [Compound 181]
> 8 µg/mL: [1]; BW25113, E. coli BW25113 | [2] | [3] | [4]; MG1655, E. coli MG1655 | [5]; [13] | [6]; [14] | [7] | [8]; [15] | [9]; E. coli JW5503 (deltolC) | [10] | [11] | [12]

O=S(=O)(N[C@@H]1CCN(Cc2nc(-c3ccccc3)cs2)C1)c1cccc(C(F)(F)F)c1 [Compound 173]
> 8 µg/mL: [1]; BW25113, E. coli BW25113 | [2] | [3] | [4]; MG1655, E. coli MG1655 | [5]; [13] | [6]; [14] | [7] | [8]; [15] | [9]; E. coli JW5503 (deltolC) | [10] | [11] | [12]

Cc1c(S(=O)(=O)N[C@@H]2CCN(Cc3ccc(OC4CC4)cc3)C2)sc2ccc(Cl)cc12 [Compound 85]
8 µg/mL: [3]
~8 µg/mL: [8]; [18] | [9]; C: E. coli JW5503 (deltolC)
> 8 µg/mL: [1]; BW25113, B: E. coli BW25113 | [2]; D: Edwardsiella tarda | [4]; MG1655, A: E. coli MG1655 | [5]; [16] | [6]; [17] | [7] | [11] | [12]; G: Shigella flexneri
4 µg/mL: [10]

O=S(=O)(N[C@@H]1CCN(Cc2ccn(-c3ccccc3)n2)C1)c1cccc(C(F)(F)F)c1 [Compound 125]
> 8 µg/mL: [1]; BW25113, B: E. coli BW25113 | [2]; D: Edwardsiella tarda | [3] | [4]; MG1655, A: E. coli MG1655 | [5]; [16] | [6]; [17] | [7] | [8]; [18] | [9]; C: E. coli JW5503 (deltolC) | [10] | [11] | [12]; G: Shigella flexneri

N#Cc1cccc(S(=O)(=O)N[C@@H]2CCN(Cc3ccc(-c4ccc(Cl)cc4)cc3)C2)c1 [Compound 101]
2 µg/mL: [9]; C: E. coli JW5503 (deltolC)
~8 µg/mL: [8]; [18]
8 µg/mL: [10]
> 8 µg/mL: [1]; BW25113, B: E. coli BW25113 | [2]; D: Edwardsiella tarda | [3] | [4]; MG1655, A: E. coli MG1655 | [5]; [16] | [6]; [17] | [7] | [11] | [12]; G: Shigella flexneri

N#Cc1ccc(S(=O)(=O)N[C@@H]2CCN(Cc3ccc(OC4CC4)cc3)C2)cn1 [Compound 159]
> 8 µg/mL: [1]; BW25113, E. coli BW25113 | [2] | [3] | [4]; MG1655, E. coli MG1655 | [5]; [13] | [6]; [14] | [7] | [8]; [15] | [9]; E. coli JW5503 (deltolC) | [10] | [11] | [12]

N#Cc1cccc(S(=O)(=O)N[C@@H]2CCN(Cc3ccc(-c4ccccc4Cl)cc3)C2)c1 [Compound 70]
> 8 µg/mL: [1]; BW25113, B: E. coli BW25113 | [2]; D: Edwardsiella tarda | [3] | [4]; MG1655, A: E. coli MG1655 | [5]; [16] | [6]; [17] | [7] | [8]; [18] | [11] | [12]; G: Shigella flexneri
8 µg/mL: [10]
1 µg/mL: [9]; C: E. coli JW5503 (deltolC)
